How the values were obtained:
[1] = system: seizures in amygdala kindled rats; assay: Basolateral amygdala kindling; assay type: in vivo
Protocol: Seizure kindling models evaluate effects of drugs on the sensitization of the nervous system to seizure induction. In this test, drugs were evaluated for their ability to impact seizure parameters in rats that were fully kindled by daily electrical stimulation of their amygdala. Valproic acid was used as a positive control. Experiments were conducted using the general procedures of Zwart et al. (J. Pharmacol. Exp. Ther., 2014, 351:124-133). A bipolar electrode for electrical stimulation and EEG recording was stereotaxically implanted into one hemisphere of the basolateral amygdala (AP −2.2, ML −4.8, DV −8.5 mm, relative to bregma) of male Wistar rats. After post-operative recovery, electrical kindling begins, where a subthreshold constant current (400 μA, 1 ms, monophasic square-wave pulses, 60 Hz for 1 sec) is given once a day Monday-Friday for about 4-6 weeks until a rat is fully kindled. A fully kindled rat has experienced 10 consecutive stage 5 seizures or 10 of its last 12 were stage 5 according to the Racine Scale.
Twelve fully kindled rats were assigned to this study, and eight rats were selected and randomized to initial compound treatment groups from baseline after discharge threshold (ADT), seizure severity score, and after discharge duration (ADD). […] On test day, rats were dosed 30 min prior to beginning stimulation. After the pre-treatment, rats were stimulated using an ascending staircase sequence beginning at 10 μA and increasing in log unit steps of 10, 16, 25, 40, 65, 100, 160, 250, and 400 μA. Animals were stimulated until they were assigned a Seizure Severity Score for a visually observably seizure or they reached the 400 μA threshold limit. ADD was determined following testing. ADT was the current that induced a seizure; measurements were scale-adjusted to capture the stimulation scale change required to observe a seizure from the previous baseline to the ADT scored on test day. […] The average scale adjusted ADT was approximately 0.63 μA in vehicle treated rats.
Racine score of behavioral response to stimulation: 0=no behavioral response; 1=immobility, staring and/or facial clonus; 2=head nodding, jaw clonus, and/or tongue protrusion; 3=unilateral forelimb clonus; 4=bilateral forelimb clonus and/or rearing; 5=bilateral forelimb clonus with rearing and loss of balance.
After-Discharge Duration (ADD) is the duration of the first after-discharge.
ADT, ADD, and severity scores were analyzed by ANOVA. Seizure severity data was also analyzed by the nonparametric Skillings-Mack test, a generalization of the Friedman test for one-way repeated measures designs. Posthoc tests when reported were either by Dunnett's method (seizure severity) or using Wilcoxon sign rank tests (ADT and ADD). Valproic acid, used as a positive control was not used in ANOVA calculations.

[2] = system: PTZ-induced clonus; assay: Pentylenetetrazole (PTZ, 35 mg/kg s.c.)-induced clonic convulsions; assay type: in vivo; details: for PTZ Clonus to Criteria 1: MED producing maximal protection (0% seizures); for PTZ Clonus Potency (MED): lowest dose with statistically significant protection; for PTZ Clonus Potency (MED) / protection against PTZ-induced clonus: PTZ 35 mg/kg s.c.
Protocol: After the inverted screen test, the rats were dosed with pentylenetetrazole (PTZ)(35 mg/kg, s.c.) in a volume of 1 ml/kg and placed in an observation cage (40.6×20.3×15.2 cm) with a floor containing […] of wood chip bedding material. PTZ dose was determined to be ˜EC97 for producing clonic convulsions.

[3] = system: PTZ seizure threshold; assay: Pentylenetetrazole (PTZ, i.v.)-induced seizure threshold; assay type: in vivo, rats
Protocol: Male […] Sprague-Dawley rats (Indianapolis, Ind.) were randomly assigned to treatment groups and dosed with vehicle (vehicle=1% carboxymethyl cellulose) with diazepam (0.1, 0.3, or 1 mg/kg) or test compound (3, 10, 30, or 60 mg/kg) 30 minutes prior to testing. Rats were placed in a restrainer and a winged infusion needle was inserted into the lateral tail vein. Intravenous infusion with 10 mg/ml PTZ at a rate of 0.5 ml/min was initiated until a clonic convulsion occurred, and the time to clonic convulsion was recorded in sec or a maximum of 4 min was recorded. Following infusion, rats are euthanized. The dose of PTZ required to elicit a clonic convulsion was calculated using the infusion rate, concentration of PTZ, time to clonic convulsion, and animal weight.

[4] = system: electroshock-induced seizures; assay: Mouse electroshock-induced seizure model; assay type: in vivo; details: mice
Protocol: This assay detects effects of compounds that produce generalized seizures and those that dampen seizure spread. Male, CD1 mice (Taconic Farms) were studied at weights of 21-32 g. Mice=10/dose) were used with Wahlquist Model H stimulator with 0.2 sec stimulation with corneal electrodes. […] Mice were euthanized immediately following the test. Tonic extension was used as the primary endpoint.
(§1) For the in vivo assays, minimal effective doses (MED) were calculated in mg/kg. MED was defined as the lowest dose administered that produced statistically significant protection compared to vehicle control in the anticonvulsant assays. The MED, or minimal toxic dose (MTD) for motor impairment, was the minimal dose required to produce statistically-significant impairment in motor performance. Doses tested are shown in the figures and tables and are generally dosed in ½ log increments. The protective index (PT) was calculated at the MTD/MED.

[5] = system: immobility in forced-swim test; assay: Forced-swim assay; assay type: in vivo, mice
Protocol: Male NIH Swiss mice (Envigo, Indianapolis, Ind.) were studied. Mice were placed in clear plastic cylinders (diameter: 10 cm; height: 25 cm) filled with 6 cm of water (22-25° C.) for six min. […] The duration of immobility during the last four min of the six min test period was scored. A mouse was recorded as immobile when floating motionless or making only those movements necessary to keep its head above water.

[6] = system: motor performance on inverted screen
Protocol: Without prior pretraining, mice were placed on an 11 cm×14 cm square of round hole, perforated stainless steel mesh (18 holes/square inch, 3/16 inch diameter, ¼ inch staggered centers, 50% open area) mounted on a metal rod, 35 cm above the table top. The screen was slowly inverted such that the mouse was on the underside of the screen. Mice were then scored for 60 sec as follows: 0=climbed to top of screen, 1=hung onto bottom of screen, 2=fell off. Data were analyzed by ANOVA followed by post-hoc Dunnett's test.
The test compounds were suspended in 1% hydroxyethylcellulose/0.05% Tween 80/0.05% Dow antifoam. […] Compounds were administered in a volume of 10 ml/kg and were given 30 min prior to testing via the i.p. route of administration; diazepam was dosed orally, 30 min prior to testing.

[7] = system: human (α2), or rat (α1, α3, α5, γ2L, β3) GABAA receptor subunits; assay: Whole-cell patch-clamp GABA current responses in transfected HEK-293T cells; assay type: cell-based; details: GABA EC3-5, drug concentration 100 nM
Protocol: Human […] (HEK-293T) were transiently transfected with full-length cDNAs encoding human (α2), or rat (α1, α3, α5, γ2L, β3) GABAA receptor subunits using calcium phosphate precipitation. Positively transfected cells were isolated by utilizing co-transfection of a plasmid encoding a surface antibody (pHook™-1, Invitrogen). 20-52 hours following transfection, cells were mixed with magnetic beads coated with antigen specific for the pHook antibody, isolated with a magnetic stand, and then plated onto coverslips and used for patch-clamp recordings 18-28 hours later.
Current responses to GABA were recorded in the whole-cell configuration, with cells voltage-clamped at −50 mV. The bath solution contained (in mM): 142 NaCl, 8.1 KCl, 6 MgCl2, 1 CaCl2), and 10 HEPES (4-(2-hydroxyethyl)-1-piperazineethanesulfonic acid) with pH=7.4 and osmolarity adjusted to 295-305 mOsm. The electrode (internal) solution consisted of (in mM); 153 KCl, 1 MgCl2, 5 K-EGTA (ethylene glycol-bis (β-aminoethyl ether N,N,N′N′-tetraacetate)), and 10 HEPES with pH=7.4 and osmolarity adjusted to 295-305 mOsm. […] Currents were recorded with an Axon 200B (Foster City, Calif.) patch clamp amplifier. […] Data were analyzed by two-way ANOVA followed by post-hoc Tukey's multiple comparison test. […]

[8] = system: motor performance on an inverted screen; assay: Rat inverted screen test (motor impairment); details: up to 30 mg/kg, rats, inverted screen
Source text: The motor effects of Diazepam and KRM-II-81 were studied on the inverted screen. The inverted screen test is used to measure whether or not a test compound induces muscle relaxation. When a test subject is placed on a wire screen which is then inverted, the reaction is to climb to the opposite side so they are no longer hanging upside down.
Male, Sprague Dawley rats (Harlan Sprague Dawley, Indianapolis, Ind.) were used and weighed 90-110 g when evaluated in experiments. […] Rats were placed onto the top of a wire screen, which was then inverted so that the rats were hanging upside down.
Male Sprague-Dawley rats (n=5) were dosed i.p. (vehicle=1% carboxymethyl cellulose) with diazepam (3, 10, or 30 mg/kg), KRM-II-81 (10, 30, or 60 mg/kg) or HZ-166 (30 mg/kg) 30 minutes prior to testing. Rats were placed onto the top of a wire screen, which was then inverted so that the rats were hanging upside down. […] Results were analyzed using ANOVA (Dunnett's test: *P<0.05).
as §1

CN1C(=O)CN=C(c2ccccc2)c2cc(Cl)ccc21 [Diazepam, diazepam, reference compound]
After-Discharge Duration to Criteria ([1]; MED for producing after-discharge duration ≤30 sec): >10 mg/kg | After-Discharge Threshold to Criteria ([1]; MED for producing after-discharge threshold ≥3): >10 mg/kg | Seizure Severity to Criteria ([1]; MED for producing seizure severity score ≤2): 10 mg/kg | After-Discharge Duration Potency (MED) ([1]; amygdala kindled rats): >10 mg/kg | After-Discharge Threshold Potency (MED) ([1]; amygdala kindled rats): 10 mg/kg | Seizure Severity Poteny (MED) ([1]; amygdala kindled rats): 10 mg/kg | effect on adjusted after-discharge threshold (ADT) ([1]; amygdala kindled rats): significantly increased | effect on after-discharge duration (ADD) ([1]; amygdala kindled rats): trend for a significant effect | effect on seizure severity score / kindling measures ([1]; amygdala kindled rats): decreased significantly | Seizure free scores (seizure severity=0) ([1]; amygdala kindled rats, groups of 8): 2/8 | PTZ Clonus to Criteria 1 ([2]; rats): 10 mg/kg | potency relative to KRM-II-81 to induce full seizure protection ([2]; PTZ-induced clonus, rats): 10 × | convulsions (rats convulsing/tested) after PTZ ([2]; diazepam 30 mg/kg p.o. + PTZ): 0/5 | PTZ Clonus Potency (MED) ([2]; rats): 10 mg/kg | protection against PTZ-induced clonus ([2]; rats): fully prevented | PTZ Threshold to Criteria ([3]; MED for producing ≥2× PTZ seizure threshold at baseline): >1 mg/kg | potency relative to KRM-II-81 and KRM-II-82 ([3]; PTZ seizure threshold, rats): about 10 times | PTZ Threshold Poteny (MED) ([3]; lowest dose with statistically significant effect, rats, PTZ i.v.): 1 mg/kg | effect on dose of PTZ required to induce convulsions ([3]; rats, PTZ i.v. infusion, pretreatment 30 min): increased the dose of PTZ required to induce convulsions | potency relative to KRM-II-81 to induce full seizure protection ([4]; electroshock): 5 × | Electroshock (minimal effective dose, MED) ([4]; lowest dose with statistically significant protection vs vehicle): 3 mg/kg | protection against electroshock-induced seizures [4]: fully prevented | antidepressant-like effect in forced-swim assay ([5]; diazepam 22 mg/kg p.o. alone, mice): did not produce an antidepressant-like effect | motor impairment on inverted screen ([6]; diazepam 22 mg/kg p.o., mice): still significant but not maximal | motor impairment score on inverted screen test ([6]; diazepam 30 mg/kg p.o., prior data, out of 2.0): 1.8

C#Cc1ccc2c(c1)C(c1ccccn1)=NCc1c(-c3nc(CC)no3)ncn1-2 [MP-III-080, 3-ethyl-5-(8-ethynyl-6-(pyridin-2-yl)-4H-benzo[f]imidazo[1,5-a][1,4]diazepin-3-yl)-1,2,4-oxadiazole]
PTZ Clonus to Criteria 1 ([2]; rats): 10 mg/kg | PTZ Clonus Potency (MED) ([2]; rats): 10 mg/kg | protection against PTZ-induced clonus ([2]; rats): dose-dependently suppressed | selectivity for α2 and α3 over α1 [7]: selective for α2 and α 3 over α1 | Electroshock to Criteria ([4]; MED producing maximal protection (0% seizures)): 5.6 mg/kg | immobility in forced-swim assay ([5]; male NIH Swiss mice, i.p., 30 min prior): significantly decreased immobility time | effect on motor performance [8]: without significant effect on motor performance
